pIC50: −log10 of the molar value. Several values for one entry are separate records, joined by “and”; a condition that tells them apart may be missing. Equal values may be shown once.
Legend:
SCD1 [1] = target: SCD1 (Homo sapiens (Human), UniProt O00767); test: SCD1 13C-palmitic acid assay in A431 cells; type: cell-based; conditions: read-out: A431 cells 13C-PA IC50
Description: Human epithelial carcinoma A431 cells were seeded at 100,000 cells/well in complete growth medium (DMEM, Cellgro #10-013-CM, 4.5 g/L glucose, 10% FBS) in the presence of 0.05 mg/mL human insulin (Hannas Pharmaceutical Supply Co Inc, Humanlin 100 U/ml, 4 mg/ml) in 96-well tissue culture plate. […] The cells were then returned to the tissue culture incubator (37° C. and 5% CO2) for 4 hrs. At the end of incubation, the cells were washed three times with 200 μL/well Hanks buffer (HBSS) and then stored at −20° C. until extraction.
For fatty acid extraction, after thawing out the plates, 40 μL of 1N KOH (containing 5 μM of internal standard 7,7,8,8-D4 palmitate) was added to each well and cell plates were incubated at 37° C. for 30 minutes. […] Acetonitrile (100 μL) was then added to extract fatty acids, followed by centrifugation at 3000 rpm for 10 minutes. 75 μL of extract was then transferred to a new glass vial in a 96-well cluster plate. 5 μL was injected for LC/MS analysis for detection of ^13C-palmitic acid and ^13C-palmitoleic acid. Formation of product ^13C-palmitoleic acid was determined as an index of SCD1 activity.
LC/MS analysis was performed as following. An Agilent 1100 Liquid Chromatographic System (Palo Alto, Calif.) consisting of a binary pump, a degasser and an autosampler was used. Separation of free fatty acids was performed on a Zorbax SB—C8 column (2.1×50 mm, particle size=3.5 μm). An isocratic elution was carried out with 10 mM triethylamine acetate in water:acetonitrile (3:7) at a flow rate of 0.3 mL/min. The column temperature was set at 30° C. and the sample injection volume was 5 μL. The LC run cycle was 4 min, A Micromass triple-quadrupole Quattro Micro mass […] (Waters, Beverly, Mass.) was interfaced with the LC system through a Z-spray electrospray ion source and was operated in the negative ion mode. Nitrogen was used as nebulizing gas, desolvation gas and cone curtain gas and argon was chosen as collision gas. The triple quadrupole MS source parameters were set as follows: capillary voltage, 3200V; cone voltage, 25V; extractor 2V, source temperature, 120° C.; desolvation temperature, 300° C.; cone gas flow, 50 L/h; and desolvation gas flow, 700 L/h. […] MassLynx software version 4.0 was used for system control and data processing. The signal of U—^13C-palmitoleic acid was normalized to an internal standard.

SCD1 [2] = target: SCD1 (Rattus norvegicus (Rat), UniProt P07308); test: SCD1 enzymatic assay in rat liver microsomes (RLM); type: biochemical; conditions: for inhibition at 1 µM / % Inh. @ 1 μM: 1 μM test compound
Description: Step 1: Preparation of Rat Liver Microsome (RLM)
Sprague Dawley rats from Charles River (200-225 g) underwent 2-cycle of fast-re-feeding (24-hour fast followed by 24-hour feeding with fat-free high carbohydrate diet, Research Diet, D00042802). The livers were removed and homogenized 1:4 (w/v) with pre-chilled, homogenizing buffer (10 mM Tris-HCl, 0.25 M sucrose, 1 mM EDTA, pH 7.4, supplemented with protease inhibitor cocktail). The homogenate was spun at 12,000×g for 15 min at 4° C. The supernatant was then re-centrifuged at 100,000×g for 60 min at 4° C. The pellet was re-suspended in 2 ml pre-chilled […] potassium phosphate buffer, pH 7.2, 10 mM EDTA at a concentration of 20 mg/ml. The resulting rat liver microsome (RLM) preparation was stored at […].
Step 2: SCD1 Enzymatic Assay in RLM:
The SCD1 enzymatic assay was done in a volume of 50 μL using 10 μg of RLM (prepared as described above) in a 96-well polypropylene plate (enzyme reaction buffer contains 0.1 M K-Phosphate Buffer, 10 mM ATP, 6 mM MgCl2, 1 mM CoA, 1 mM β-NADH, 1.6 mM L-glutathione, 20 μM Stearoyl-CoA). Stearoyl-[9,10-^3H]—CoA (ARC-0390, 1 mCi/mL, 60 Ci/mmol,) was added at a final concentration of 2 μCi/mL. Test compound was then added to the reaction mixture at the selected concentration. After incubation at room temperature for 2 hours, 5 μL 1 N HCl was added to stop the reaction, followed by addition of 25 μL of 10% charcoal. The reaction mixture was then transferred to 96-well Multiscreen plate (Millipore, Cat# MSFCN6B50). [^3H2O] was collected into Opti-plate (PE, Cat #6005290) by centrifuge, at 1,000 rpm for 2 minutes. 150 μL Microscint 40 (PE, cat #6013641) was then added to each well and counted on Topcount for [^3H] counts per minute (cpm). The measured cpm values were fitted with Sigmoidal dose-response curve fit with Graphpad Prism.

SCD1 (Homo sapiens (Human), UniProt O00767), sequence (O00767 whole entry): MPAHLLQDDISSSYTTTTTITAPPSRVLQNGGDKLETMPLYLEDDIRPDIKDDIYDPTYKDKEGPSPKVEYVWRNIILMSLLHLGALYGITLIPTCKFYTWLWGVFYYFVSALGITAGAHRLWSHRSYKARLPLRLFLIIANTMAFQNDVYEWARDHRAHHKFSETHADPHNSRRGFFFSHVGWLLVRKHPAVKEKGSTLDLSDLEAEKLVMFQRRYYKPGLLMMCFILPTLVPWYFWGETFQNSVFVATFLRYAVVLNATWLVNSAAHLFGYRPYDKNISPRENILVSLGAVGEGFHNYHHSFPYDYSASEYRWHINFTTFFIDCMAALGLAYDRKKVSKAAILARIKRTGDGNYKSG
SCD1 (Rattus norvegicus (Rat), UniProt P07308), sequence (P07308 whole entry): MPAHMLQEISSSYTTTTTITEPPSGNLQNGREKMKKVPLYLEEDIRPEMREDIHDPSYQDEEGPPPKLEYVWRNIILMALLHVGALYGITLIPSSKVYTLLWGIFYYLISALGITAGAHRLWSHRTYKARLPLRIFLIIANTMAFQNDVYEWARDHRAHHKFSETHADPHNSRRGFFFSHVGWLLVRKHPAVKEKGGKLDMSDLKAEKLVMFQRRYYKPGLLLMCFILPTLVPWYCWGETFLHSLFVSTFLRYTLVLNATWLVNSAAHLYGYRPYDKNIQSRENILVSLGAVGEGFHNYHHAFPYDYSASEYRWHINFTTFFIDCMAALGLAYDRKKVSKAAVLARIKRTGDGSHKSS

| pIC50 (SCD1 [1]) | pIC50 (SCD1 [2]) | inhibition at 1 µM (SCD1 [2]) | % Inh. @ 1 μM (SCD1 [2]) | SMILES |
| --- | --- | --- | --- | --- |
| 6.56 | 6.68 | 84% |  | NC(=O)c1cccc(NC(=O)N2CCC(c3noc4ccc(F)cc34)CC2)c1 [Compound 17, N-(3-carbamoylphenyl)-4-(5-fluorobenzo[d]isoxazol-3-yl)piperidine-1-carboxamide] |
| 9.00 | 7.41 | 98% |  | O=C(Nc1nc2c(s1)CC(O)CC2)N1CCC(c2noc3ccc(F)cc23)CC1 (stereo not drawn) [Compound 60, 4-(5-fluorobenzo[d]isoxazol-3-yl)-N-(6-hydroxy-4,5,6,7-tetrahydrobenzo[d]thiazol-2-yl)piperidine-1-carboxamide] |
| 6.79 | 6.49 | 61% |  | O=C(Nc1cccc(CO)c1)N1CCC(N2CCc3ccc(F)cc32)CC1 [Compound 43, 4-(6-fluoroindolin-1-yl)-N-(3-(hydroxymethyl)phenyl)piperidine-1-carboxamide] |
| 6.54 and 6.83 | 7.06 and 7.23 | 86% | 86, 86% | NC(=O)c1cccc(NC(=O)N2CCC(n3ncc4c(F)cccc43)CC2)c1 [Compound 39, N-(3-carbamoylphenyl)-4-(4-fluoro-1H-indazol-1-yl)piperidine-1-carboxamide] |
| 7.12 | 6.46 | 68% |  | O=C(Nc1nc2c(s1)CCCC2)N1CCC(N2CCc3ccc(F)cc32)CC1 [Compound 62, 4-(6-fluoroindolin-1-yl)-N-(4,5,6,7-tetrahydrobenzo[d]thiazol-2-yl)piperidine-1-carboxamide] |
| 7.77 | 6.69 | 99% |  | O=C(Nc1nc2c(s1)COCC2)N1CCC(N2CCc3ccc(F)cc32)CC1 [Compound 61, N-(6,7-dihydro-4H-pyrano[4,3-d]thiazol-2-yl)-4-(6-fluoroindolin-1-yl)piperidine-1-carboxamide] |
| 6.97 | 7.09 | 83% |  | Cc1cnc(NC(=O)N2CCC(N3CCc4ccc(F)cc43)CC2)s1 [Compound 21, 4-(6-fluoroindolin-1-yl)-N-(5-methylthiazol-2-yl)piperidine-1-carboxamide] |
| 6.75 | 7.07 | 55% |  | O=C(Nc1nc2c(s1)COCC2)N1CCC(c2noc3ccc(F)cc23)CC1 [Compound 63, N-(6,7-dihydro-4H-pyrano[4,3-d]thiazol-2-yl)-4-(5-fluorobenzo[d]isoxazol-3-yl)piperidine-1-carboxamide] |
| > 9.00 and 9.00 | 8.15 and 7.70 | 97% | 99% | O=C(Nc1nc2c(s1)CC(O)CC2)N1CCC(N2CCc3ccc(F)cc32)CC1 (stereo not drawn) [Compound 33, 4-(6-fluoroindolin-1-yl)-N-(6-hydroxy-4,5,6,7-tetrahydrobenzo[d]thiazol-2-yl)piperidine-1-carboxamide] |
| 6.66 | 6.44 | 62% |  | COC(=O)c1cnc(NC(=O)N2CCC(N3CCc4ccc(F)cc43)CC2)s1 [Compound 18, methyl 2-(4-(6-fluoroindolin-1-yl)piperidine-1-carboxamido)thiazole-5-carboxylate] |
| 7.52 | 7.96 | 92% |  | O=C(Nc1ncc(CCO)s1)N1CCC(c2noc3ccc(F)cc23)CC1 [Compound 55, 4-(5-fluorobenzo[d]isoxazol-3-yl)-N-(5-(2-hydroxyethyl)thiazol-2-yl)piperidine-1-carboxamide] |
| 7.74 | 7.70 | 94% |  | O=C(Nc1nc(CCO)cs1)N1CCC(N2CCc3ccc(F)cc32)CC1 [Compound 29, 4-(6-fluoroindolin-1-yl)-N-(4-(2-hydroxyethyl)thiazol-2-yl)piperidine-1-carboxamide] |
| 7.52 | 7.85 and 7.66 | 95% | 89% | O=C1NCCn2nc(NC(=O)N3CCC(N4CCc5ccc(F)cc54)CC3)cc21 [Compound 37, 4-(6-fluoroindolin-1-yl)-N-(4-oxo-4,5,6,7-tetrahydropyrazolo[1,5-a]pyrazin-2-yl)piperidine-1-carboxamide] |
| 7.42 | 7.54 | 95% |  | O=C(Nc1nc(CCO)cs1)N1CCC(c2noc3ccc(F)cc23)CC1 [Compound 54, 4-(5-fluorobenzo[d]isoxazol-3-yl)-N-(4-(2-hydroxyethyl)thiazol-2-yl)piperidine-1-carboxamide] |
| < 6.00 | 6.54 | 80% |  | CCOC(=O)Cc1csc(NC(=O)N2CCC(N3CCc4ccc(F)cc43)CC2)n1 [Compound 27, ethyl 2-(2-(4-(6-fluoroindolin-1-yl)piperidine-1-carboxamido)thiazol-4-yl)acetate] |
| 7.38 | 7.28 | 94% |  | O=C(Nc1nc(CO)cs1)N1CCC(N2CCc3ccc(F)cc32)CC1 [Compound 25, 4-(6-fluoroindolin-1-yl)-N-(4-(hydroxymethyl)thiazol-2-yl)piperidine-1-carboxamide] |
| 7.80 | 7.54 | 91% |  | O=C(Nc1nc2c(s1)CNCC2)N1CCC(N2CCc3ccc(F)cc32)CC1 [Compound 36, 4-(6-fluoroindolin-1-yl)-N-(4,5,6,7-tetrahydrothiazolo[5,4-c]pyridin-2-yl)piperidine-1-carboxamide] |
| 7.03 | 7.70 | 96% |  | NC(=O)c1cccc(NC(=O)N2CCC(N3CCc4ccc(F)cc43)CC2)c1 [Compound 16, N-(3-carbamoylphenyl)-4-(6-fluoroindolin-1-yl)piperidine-1-carboxamide] |
| 6.81 | 7.06 | 97% |  | O=C(Nc1ncc(CO)s1)N1CCC(N2CCc3ccc(F)cc32)CC1 [Compound 24, 4-(6-fluoroindolin-1-yl)-N-(5-(hydroxymethyl)thiazol-2-yl)piperidine-1-carboxamide] |
| 7.31 | 7.66 | 101% |  | NC(=O)c1cnc(NC(=O)N2CCC(N3CCc4ccc(F)cc43)CC2)s1 [Compound 15, 2-(4-(6-fluoroindolin-1-yl)piperidine-1-carboxamido)thiazole-5-carboxamide] |
| 8.22 | 8.10 | 102% |  | O=C(Nc1ncc(CCO)s1)N1CCC(N2CCc3ccc(F)cc32)CC1 [Compound 50, 4-(6-fluoroindolin-1-yl)-N-(5-(2-hydroxyethyl)thiazol-2-yl)piperidine-1-carboxamide] |
| 6.69 | 7.03 | 94% |  | CNC(=O)c1cnc(NC(=O)N2CCC(N3CCc4ccc(F)cc43)CC2)s1 [Compound 19, 2-(4-(6-fluoroindolin-1-yl)piperidine-1-carboxamido)-N-methylthiazole-5-carboxamide] |

| SMILES | pIC50 (SCD1 [1]) | pIC50 (SCD1 [2]) | inhibition at 1 µM (SCD1 [2]) | % Inh. @ 1 μM (SCD1 [2]) |
| --- | --- | --- | --- | --- |
| Cc1csc(NC(=O)N2CCC(N3CCc4ccc(F)cc43)CC2)n1 [Compound 20, 4-(6-fluoroindolin-1-yl)-N-(4-methylthiazol-2-yl)piperidine-1-carboxamide] | 7.68 | 7.59 | 98% |  |

— patent US9238658B2, “Substituted piperidinyl-carboxamide derivatives useful as SCD 1 inhibitors” (Janssen Pharmaceutica NV, priority 2011, dated 2016)
